Measured values as given in PubChem BioAssay (NCI).
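Five compound concentrations were applied to cells in 96-well plates for 48 hours; endpoints were derived by simple linear interpolation of the resulting dose-response curve. The concentration for 50% growth inhibition is given as GI50. TGI is the concentration that stops growth completely.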

What was measured:
Assay in all cases: growth of human tumour cells (NCI), 48 h
SW-620 colon = system: SW-620 colon
OVCAR-5 ovarian = system: OVCAR-5 ovarian
CCRF-CEM leukemia = system: CCRF-CEM leukemia
HL-60(TB) leukemia = system: HL-60(TB) leukemia
SF-295 CNS = system: SF-295 CNS
SK-MEL-5 melanoma = system: SK-MEL-5 melanoma
NCI-H23 lung = system: NCI-H23 lung
DLD-1 colon = system: DLD-1 colon
LXFL 529 NSCLC = system: LXFL 529 NSCLC
HOP-18 NSCLC = system: HOP-18 NSCLC
UACC-62 melanoma = system: UACC-62 melanoma

SMILES	TGI (SW-620 colon)	TGI (OVCAR-5 ovarian)	TGI (CCRF-CEM leukemia)	TGI (HL-60(TB) leukemia)	TGI (SF-295 CNS)	TGI (SK-MEL-5 melanoma)	TGI (NCI-H23 lung)	TGI (DLD-1 colon)	TGI (LXFL 529 NSCLC)	TGI (HOP-18 NSCLC)	TGI (UACC-62 melanoma)	GI50 (SW-620 colon)	GI50 (OVCAR-5 ovarian)	GI50 (CCRF-CEM leukemia)	GI50 (HL-60(TB) leukemia)	GI50 (SF-295 CNS)	GI50 (SK-MEL-5 melanoma)	GI50 (NCI-H23 lung)	GI50 (UACC-62 melanoma)	GI50 (LXFL 529 NSCLC)
CCOc1ccccc1NC(=O)C1=C(C)NC(C)=C(C(=O)Nc2ccccc2OCC)C1c1cccc([N+](=O)[O-])c1	> 100 µM	> 100 µM	> 100 µM	> 100 µM	> 100 µM	> 100 µM	> 100 µM	> 100 µM	> 100 µM											
O=C(N/C(=C\c1ccc(F)cc1)c1nc2ccccc2[nH]1)c1ccccc1	> 100 µM	> 100 µM	> 100 µM			> 100 µM	> 100 µM	> 100 µM	> 100 µM	> 100 µM	> 100 µM									
CCN1CCC(O)(/C=C/c2ccccc2)C(C(=O)/C=C/c2ccccc2)C1 (stereo unspecified)	3.41 µM	8.38 µM		4.08 µM	9.73 µM	12.2 µM	10.3 µM	8.22 µM	3.56 µM	18.1 µM	3.49 µM									
CC1OC(=O)N2CCC=CC12 (stereo unspecified)	> 100 µM	> 100 µM	> 100 µM		> 100 µM	> 100 µM	> 100 µM	> 100 µM	> 100 µM	> 100 µM	> 100 µM									
C#C[C@@H](CCCC)OC(=O)N[C@H](C)c1ccccc1	> 100 µM	> 100 µM	> 100 µM	42 µM	> 100 µM	46.5 µM		> 100 µM	> 100 µM	> 100 µM	> 100 µM									
COc1ccc(/C=C/C(=O)c2ccc(Nc3nc(Nc4ccc(F)cc4)nc(Nc4ccc(F)cc4)n3)cc2)cc1	82.1 µM	> 100 µM	48.2 µM	30.5 µM	42.7 µM	18.5 µM	32.5 µM				> 100 µM	19 µM	40.2 µM	5.15 µM	4.96 µM	14.2 µM	3.51 µM	14.4 µM	29.9 µM	
CC(=O)[O][Hg][c]1s[c]([Hg][O]C(C)=O)[c]([Hg][O]C(C)=O)[c]1[Hg][O]C(C)=O			> 100 µM	> 100 µM	40.1 µM	3.12 µM	> 100 µM		9.72 µM		27.4 µM	6.51 µM		1.18 µM	5.12 µM	13.5 µM	1.24 µM	19.7 µM	6.47 µM	1.79 µM
NC1=C(O)C(=O)C(c2c[nH]c3ccc(OCc4ccccc4)cc23)O1 (stereo unspecified)	> 100 µM	> 100 µM	> 100 µM	> 100 µM	> 100 µM	> 100 µM	> 100 µM				> 100 µM			> 100 µM						
COc1ccc(/C=C2/CSC/C(=C/c3ccc(OC)c(OC)c3)C2=O)cc1OC	3.63 µM	12.7 µM		> 100 µM	16.3 µM	7.01 µM	6.13 µM		10.8 µM	17.3 µM	3.32 µM									
COC(=N)CCCl	> 100 µM	> 100 µM	> 100 µM	> 100 µM	> 100 µM	> 100 µM	> 100 µM				> 100 µM									
O=C(CCc1cc(-c2ccc(F)cc2)n[nH]1)N(Cc1ccccc1)Cc1ccccc1	> 100 µM	> 100 µM	> 100 µM		> 100 µM	> 100 µM	> 100 µM		> 100 µM	> 100 µM	> 100 µM									
Nc1ccn(C2CC3OCC3O2)c(=O)n1 (stereo unspecified)	> 100 µM	> 100 µM	> 100 µM	> 100 µM	> 100 µM	> 100 µM	> 100 µM				> 100 µM									
O=S(=O)(Nc1ccc(Cl)c(Cl)c1)c1ccc(-c2cnc(C3CC3)o2)cc1	15.3 µM	17.3 µM	> 77.5 µM	3.47 µM	11.4 µM	14.6 µM	19.6 µM				14.5 µM	0.336 µM	2.32 µM	0.439 µM	0.274 µM	0.337 µM	0.478 µM	1.33 µM	0.433 µM	
CS(=O)(=O)CCNCc1ccoc1-c1ccc2ncnc(Nc3ccc(OCc4ccccc4)cc3)c2c1	> 25 µM	> 25 µM	> 25 µM	> 25 µM	> 25 µM	> 25 µM	> 25 µM				> 25 µM	> 25 µM	> 25 µM	17.7 µM	24.4 µM	> 25 µM	9.74 µM	> 25 µM	> 25 µM	
COc1ccc(F)cc1-c1ccnc2[nH]c(C3=CCN(C4CCC(CC(=O)O)CC4)CC3)cc12 (stereo unspecified)	18.3 µM	> 100 µM	> 100 µM	1.45 µM	15.4 µM	0.389 µM	2.53 µM				0.371 µM	0.123 µM	0.268 µM	0.13 µM	0.0739 µM	0.286 µM	0.121 µM	0.185 µM	0.113 µM	
N#CC(C#N)C(c1ccccc1)c1ccccc1	> 100 µM	> 100 µM	> 100 µM	> 100 µM	> 100 µM	> 100 µM		> 100 µM	> 100 µM	> 100 µM	> 100 µM									
O=C1C(=Cc2ccc(F)cc2)C(=O)c2ccccc21	> 100 µM	> 100 µM	> 100 µM	> 100 µM	> 100 µM	> 100 µM	> 100 µM	> 100 µM	> 100 µM		> 100 µM									
c1ccc(-c2cc3n4c(-c5ccccc5)nn(-c5ccccc5)c4cnc-3n2)cc1	> 50 µM	> 50 µM	> 50 µM	> 50 µM	> 50 µM	> 50 µM	> 50 µM				> 50 µM	> 50 µM	> 50 µM	> 50 µM	> 50 µM	2.35 µM	> 50 µM	> 50 µM	> 50 µM	
